Assay results taken from patent US20230027620A1, “PENTAPEPTIDE AND METHODS OF USE THEREOF” (THE BOARD OF TRUSTEES OF THE UNIVERSITY OF ILLINOIS, priority 2019, published 2023).
“Also recorded” adds a separate entry of the source. Starred links: 1 amine or outer side, 2 acyl side, 3 side chain; linkers in the order of their positions; H or OH if unused. Non-standard residues stand in square brackets, D forms with d. No end group written: not given here. (CH2)6 = -(CH2)6- hydrocarbon linking residues between repeats, C(CCC[*:2])CC[*:1]

How the values were obtained:
[1] = system: epithelial cell migration; assay: In vitro scratch assay, truncation and scrambled peptide series (FIG. 1; cell line not given); assay type: cell-based; conditions: for scratch (wound) closure rates, relative closure: 80 μM, FIG. 1, vs untreated control
Procedure: Peptides were tested for efficacy in accelerating scratch closure rates. Negative controls included untreated and multiple scrambled peptide (SP) controls. All peptides were tested at 80 μM concentration. All experiments were performed in triplicate with three technical replicates for each experiment. Statistical significance was determined by one-way ANOYA with Dunnett's post-hoc test. *p<0.05; **p<0.01; ***p<0.001. Relative closure=(% closure of treated sample)/(% closure of Untreated control).
In Vitro Scratch Assay. HCE, HCLE, HELA and MCF-7 cells were cultured in a 24-well plate at 2.5×10^5 (cells/well) seeding density, and were grown to confluence on a 24-well plate. Subsequently, a straight-line scratch mark was made with a sterile P200 pipette tip. The cells were then washed twice with phosphate-buffered saline (PBS) to remove cellular debris. Wounded areas were then treated with the peptides provided in Table 5 at various concentrations in standard medium with reduced serum conditions (0.5% FBS in MEM medium (HCE), growth factor-free K-SFM media (HCLE), 1% FBS in DMEM medium (HeLa) and 0.5% FBS in RPMI 1640 medium (MCF-7)). Scratches were photographed microscopically at 4× magnification (Image Express Micro, Molecular Devices, San Jose, Calif.) every hour over the course of the experiment. The wound area at each time-point was measured using Image J software (Image J 1.47v, NIH, Thornwood, Bethesda, Md.). Relative wound closure was calculated by dividing the closure of the treated wound by that of the untreated wound. For all the experiments including truncated histatin-5, a final concentration of 80 μM was used. PD98059 (Calbiochem, San Diego, Calif.) at final concentration of 50 μM was used as a specific inhibitor of MEK. PD98059 was added to cell cultures at the same time as histatin peptides.
To identify the residues of Hst5 required for epithelial cell migration, serial truncation experiments were performed, progressively deleting residues in Hst5. […] All peptides were tested at 80 μM. […] Thus, the SHRGY (SEQ ID NO:2) sequence is necessary and sufficient to promote epithelial migration rates in in vitro scratch assays.

p-ERK1/2 = assay: Immunofluorescence imaging of p-ERK1/2 in scratched HCE monolayer; assay type: cell-based, Human; conditions: 80 μM, 45 minutes
Procedure: Immunofluorescence Imaging. HCE cells were seeded in 8-well chamber slide at 9×10^4 (cells/well) seeding density, and allowed to incubate to form a confluent monolayer. Subsequently, a straight-line scratch mark was made with a sterile P10 pipette tip. The cells were then washed with media to remove cellular debris. Wounded areas were subsequently left untreated or treated with Hst5, SP1 or SP2 at 80 μM concentrations in MEM media with 0.5% FBS for 45 minutes. Cells were then fixed with 4% paraformaldehyde for 30 minutes and permeabilized with 0.1% Triton X-100 for 5 minutes. After washing with PBS, cells were incubated at room temperature for 30 minutes with 5% bovine serum albumin (BSA) and 5% normal goat serum in PBS. Cells were subsequently incubated with primary antibodies diluted in 1% BSA against p-ERK1/2 (1:200) (Cell Signaling, Danver, Mass.) at 4° C. for 16 hours. After three washings with PBS, cells were incubated with fluorescein isothiocyanate-conjugated sheep anti-rabbit IgG antibody (BD Biosciences, San Jose, Calif.) (1:500) diluted in 1% BSA at room temperature for 60 minutes. After extensive washing with PBS, the cells were then stained with 4′,6-diamidino-2-phenylindole (DAPI; (Roche, Mannheim, GE) for 2 minutes for nuclear staining. The cells were mounted in Fluoro gel with Tris buffer (Electron Microscopy Sciences, Hattfield, Pa.) and observed under a confocal microscope (Zeiss LSM 710 Confocal Microscope, Oberkochen, Germany) using a 10× objective.
The level of activation/phosphorylation of ERK with and without wounding and with and without Hst5 application were investigated to determine whether the cellular signaling pathways underpinning the pro-migratory effects of Hst5 were similar to those of Hst1 in other epithelial cell types. Wounding causes an increased in phosphorylated form of ERK1/2 (p-ERK1/2). Immunolocalization was used to determine whether Hst5 application to a scratched sheet of epithelium would affect pERK1/2 levels.

[2] = system: corneal epithelial wound in C57BLl6J mice; assay: Murine corneal epithelial injury (wound healing) model; assay type: in vivo; conditions: applied topically to mice injured using a standardized wounding method; summary statement
Procedure: Wounded areas were treated with Hst5, SHRGY (SEQ ID NO:2) or SP1 peptides (n=7 for each group), each tested at 80 μM concentration. Wound areas at multiple time points were measured using Image J software. […] Statistical significance was determined by a two-way ANOVA with Bonferroni post-hoc test. **P<0.01, ***P<0.001. % Wound area=(Wound area at time X/Wound area at time 0)×100.
Wound Healing Assay. Corneal wounding experiments in mice were conducted in compliance with the Association for Research in Vision and Ophthalmology (ARVO) Statement for the Use of Animals in Ophthalmic and Vision Research. The protocol was approved by the Animal Care & Use Committee of the University of Illinois at Chicago. Twelve-to-nineteen week old C57BLl6J (Jackson Laboratory, Bar Harbor, Me.) mice were anesthetized with intraperitoneal injection of ketamine (100 mg/kg) and xylazine (5 mg/kg). After applying two drops of topical 0.5% proparacaine, a 2.0-mm area of the central epithelium was demarcated using 2-mm disposable biopsy punch and removed by an AlgerBrush II (The Alger Company, Lago Vista, Tex.). In the treatment (n=7) or the control (n=7) group, Histatin=5 (80 μM), SHRGY peptide (SEQ ID NO:2; 80 μM), or SP1 (80 μM) was applied to the cornea three times a day. At 0, 18 and 24 hours, the corneas were stained with fluorescein (FUL-GLO® Fluorescein Sodium ophthalmic strips, Akorn, Lake forest, Ill.) and photographed using a NIKON FS-2 photo-slit lamp with a NIKON D200 camera (Melville, N.Y.). Wound sizes were compared with the baseline for each mouse and the percentages of wound closure was measured using Image J software.
For immunofluorescence, excised whole mouse eye was snap frozen in optimal cutting temperature compound (OCT; (Fisher Healthcare, Galderma, Calif.). The frozen tissues were cut into 10 μm cryosections (ThermoScientific NX50 Cryomicrotome, Waltham, Mass.) and subsequently were mounted on Superfrost plus slides (Thermofisher, Waltham, Mass.). Slides were fixed for 20 minutes in methanol, washed several times with PBS, stained with DAPI for 2 minutes, and further washed with PBS and deionized water. The slides were then mounted in Fluoro gel with Tris buffer (Electron Microscopy Sciences, Hattfield, Pa.) and observed under a confocal microscope (Zeiss LSM 710 Confocal Microscope, Oberkochen, Germany) using a 10× objective.
Thus, Hst5 and SHRGY (SEQ ID NO:2)-containing peptides can enhance wound healing in a well-vetted model of murine corneal epithelial injury.

Molecule | scratch (wound) closure rates, relative closure [1] | also measured
COc1cccc(-c2cc(=O)c3ccccc3o2)c1N [PD98059] |  | effect of MEK inhibitor co-treatment on Hst5-promoted wound closure ([1]; PD98059 50 μM added at the same time as Hst5): eliminated the effects of Hst5 on promoting wound closure
DSHAKRHHGYKRKF [Hst5(1-14)] | no significant increase in wound closure rates | 
DSHAKRHHGYKRKFHEKHH [Hst5(1-19)] | no significant increase in wound closure rates | 
DSHAKRHHGYKRKFHEKHHSHR [Hst5(1-22)] | no significant increase in wound closure rates | 
DSHAKRHHGYKRKFHEKHHSHRG [Hst5(1-23)] | no significant increase in wound closure rates | 
DSHAKRHIHGYKRKFHEKHHSH (DSHAKRHHGYKRKFHEKHHSH) [Hst5(1-21)] | no significant increase in wound closure rates | 
HSHKEGHHYKRFKRKHHADSHRGY [SP2] | significant increases in scratch closure rates | pERK1/2 immunolocalization / signal intensity (p-ERK1/2): increased pERK1/2 levels to a comparable intensity to Hst5; also recorded: elevated immunolocalization of pERK1/2
RHHGYKRKFHEKHHSHRGY [Hst5(5-24)] | significant increases in scratch closure rates | 
RYHGS [SP4] | did not significantly increase wound closure rates | 
RYSGH [SP3] | did not significantly increase wound closure rates | 
SHDGY [pentapeptide] |  | epithelial migration ([1]; summary statement: immortalized human corneal epithelial cells, immortalized human corneal limbal epithelial cells, HeLa human cells, mouse corneal wounding models): significantly enhance epithelial migration
SHRGY-(CH2)6-SHRGY-(CH2)6-SHRGY-(CH2)6-SHRGY (SHRGY[(CH2)6]SHRGY[(CH2)6]SHRGY[(CH2)6]SHRGY) [multimer of SHRGY composed of 4 repeating units] | significant increases in scratch closure rates | corneal healing [2]: significantly improve corneal healing
TNQQK [SP5] | no significant improvement in the wound closure rates | 
YHGHRHFRKHKKHKEAHSYDRGSH [SP1] |  | pERK1/2 immunolocalization / signal intensity (p-ERK1/2): did not elicit the same increase in pERK1/2 immunolocalization
c-SHRGY: cyclized SHRGY peptide, prepared using a linker/spacer composed of 6-(Fmoc-amino)caproic acid, 6-(Fmoc-amino)hexanoic acid (cyclo(SHRGY); not fully specified (C-terminus)) | significant increases in scratch closure rates | 
